Experimental data published in EP1905824A1, “A […] AND A METHOD FOR CELL […]” (Olympus Corporation, priority 2005, dated 2006).

Key:
Assay type in all cases: cell-based, human
[1] = test system: MCF7 cell lines (clones) in which the ERE-GFP reporter gene having a sable GFP as the reporter was stably introduced; test: GFP protein induction with/without estrogen (E2), stable-GFP reporter clones; details: E2 10 nM, two days
ERE-GFP-E10 cell line [2] = test: Estrogen signal response assessment (GFP expression, fluorescence microscope / flow cytometer); details: E2 10 nM, two days; compared with E2-untreated (low GFP expression level)
[3] = test system: cell line in which only the pd2EGFP-1 vector having no ERE was stably introduced (pdE2-GFP-4); test: Estrogen signal response assessment (GFP expression), control cell line without ERE; details: E2 10 nM, two days; regardless of E2-treated/untreated
ERE-GFP-E10 cell line [4] = test: GFP expressing cell counting after addition of E2
ERE-GFP-E10 cell line [5] = test: MTT assay for living cell counts after addition of E2; details: E2 0 to 300 pM; four days; absorbance at 560 nm
[6] = test system: breast cancer tissue-derived adipose stromal cell and ERE-GFP-E10 cell; test: Co-culture of breast cancer tissue-derived adipose stromal cell and ERE-GFP-E10, detection of estrogen signal; parameters: dose or concentration left out as unconfirmed; details: testosterone, four days co-culture; compared with no addition of androgen; three breast cancer cases
[7] = E2 3 pM or 1 nM, Day 1 to Day 4, regardless of the amount of E2 added

Compound | GFP expression positive cell rate (%) E2-added group ([1]; clone #16, E2-free group 85) [%] | GFP expression positive cell rate (%) E2-added group ([1]; clone #19, E2-free group 32) [%] | GFP expression positive cell rate (%) E2-added group ([1]; clone #21, E2-free group 5) [%] | GFP expression positive cell rate (%) E2-added group ([1]; clone #28, E2-free group 37) [%] | GFP expression positive cell rate (%) E2-added group ([1]; clone #29, E2-free group 77) [%] | GFP expression positive cell rate (%) E2-added group ([1]; clone #37, E2-free group 83) [%] | GFP expression level when E2-treated (ERE-GFP-E10 cell line [2]) | GFP expression [3] | E2 concentration at which GFP expression induction was maximized (ERE-GFP-E10 cell line [4]; E2 0, 1, 3, 10, 30, 100, 300 pM, four days) [pM] | day from which GFP expression was observed after the addition of E2 (ERE-GFP-E10 cell line [4]; [7]) [days] | day on which GFP expression positive cell count was maximized (ERE-GFP-E10 cell line [4]; [7]) [days] | minimal effective concentration (ERE-GFP-E10 cell line [4]; Homo sapiens, 96 h, E2 0, 1, 3, 10, 30, 100, 300 pM, four days, read-out: E2 concentration at which a significant level of GFP expression induction was detected) [µM] | living cell count (ERE-GFP-E10 cell line [5]) | GFP positive cell rate in the ERE-GFP-E10 cell [6]
C[C@]12CC[C@@H]3c4ccc(O)cc4CC[C@H]3[C@@H]1CC[C@@H]2O [E2, 17 β estradiol] | 88 | 73 | 8 | 41 | 83 | 84 | GFP well induced, having a high expression level | no GFP expression | 30 | 1 | 2 | 3e-06 | increased dependently on the added E2 concentration | 
C[C@]12CC[C@H]3[C@@H](CCC4=CC(=O)CC[C@@]43C)[C@@H]1CC[C@@H]2O [testosterone] |  |  |  |  |  |  |  |  |  |  |  |  |  | significantly increased
